Test [1] is described as follows: Binding affinity to d(C5T3)3C5 i-Motif DNA (unknown origin) by UV titration method.
Test [2] is described as follows: Binding affinity to human telomeric G-quadruplex DNA.
Test [3] in a line: Binding affinity to human telomeric duplex DNA.
For test [4], the species on record is Homo sapiens. The experiment in a line: Increase in thermal stability of human telomeric i-Motif DNA assessed as change in melting temperature at pH 5.5.
The species entered for test [5] is Homo sapiens. Briefly: Binding to human telomeric i-Motif DNA by fluorescence titration method.
The species named for test [6] is Homo sapiens. Briefly: Binding affinity to human telomeric i-Motif DNA assessed as change in melting temperature at pH 6.8 by FRET assay.
Test [7] is filed under the species Homo sapiens. The experiment in a line: Binding affinity to human telomeric G-quadruplex DNA assessed as change in melting temperature by FRET assay.
The nature of test [8]: Binding affinity to bcl-2 i-Motif DNA (unknown origin) by fluorescence based assay.
A short description of test [9]: Reduction in bcl-2 expression in human GRANTA-519 cells xenografted in mouse. The format is functional. The following applies: dose or concentration not given here. In general terms: In xenograft studies the graft and the host belong to different species.
A short description of test [10]: Antitumor activity against human GRANTA-519 cells xenografted in mouse assessed as inhibition of tumor growth co-administered with etoposide. The class given is functional.

What is called Kd is the free concentration of one partner at which half of the binding sites on the other are occupied at equilibrium, for simple one-to-one binding. A high value points to lower affinity. Take `CN(C)c1ccc(C(=C2C=CC(=[N+](C)C)C=C2)c2ccc(N(C)C)cc2)cc1` [GENTIAN VIOLET]: the Kd in test [1] was found to be 830 nM.

As usually defined, the ΔTm is the shift of the melting midpoint relative to a reference. As for `O=C(Nc1ccc(OCCN2CCCC2)cc1)c1ccc2ccc3ccc(C(=O)Nc4ccc(OCCN5CCCC5)cc4)nc3c2n1`, the Kd was determined as 1600 nM in test [2], 6700 nM in [3] and 4000 nM in the test listed under Homo sapiens [5]. In the test listed under Homo sapiens [4], the thermal shift (ΔTm) came to 7 °C.

In the case of `CN(C)CCOc1ccc(NC(=O)c2ccc3ccc4ccc(C(=O)Nc5ccc(OCCN(C)C)cc5)nc4c3n2)cc1`, the Kd was 1600 nM in [2], 6700 nM in test [3] and 4000 nM in the test filed under Homo sapiens [5]. Also, the ΔTm in the test filed under Homo sapiens [4] was 7 °C.

`c1cc2nc3ccc4cc3cc2cc1CNCCNCCNCc1ccc2nc3ccc(cc3cc2c1)CNCCNCCNC4`: the ΔTm was determined as 33 °C in the test filed under Homo sapiens [6] and 15 °C in the test filed under Homo sapiens [7].

As to `O=C(Nc1ccc(OCCN2CCCCC2)cc1)c1ccc2ccc3ccc(C(=O)Nc4ccc(OCCN5CCCCC5)cc4)nc3c2n1`, the dissociation constant (Kd) in test [2] came to 1600 nM; in test [3], 6700 nM; in the test listed under Homo sapiens [5], 4000 nM. In addition, the ΔTm in the test filed under Homo sapiens [4] was determined as 7 °C.

The inhibition is the drop in the measured response relative to a control, in per cent. A lower inhibition goes with a response near the control. The TGI is the reduction of tumour growth relative to the control group. In [8], `COc1ccc2c(c1)CN([C@@H](C)[C@H]1CC[C@H]3[C@@H]4CC[C@H]5C[C@@H](O)CC[C@]5(C)[C@H]4CC[C@]13C)CO2` registered a Kd of 1010 nM. In addition, the inhibition in test [9] was found to be 20%. Also, in [10], the TGI is reported as 65%.

For the compound `CC(C)CC[C@H](C)[C@@H]1CC[C@H]2[C@@H]3CC[C@H]4C[C@@H](NC(=O)C[N+]5(C)CCCCC5)CC[C@]4(C)[C@H]3CC[C@@]21C`, the dissociation constant Kd in test [8] is 490 nM.

For the origin of these results see ChEMBL document CHEMBL3352292, “i-Motif DNA: structure, stability and targeting with ligands” (Bioorg Med Chem, 2014).
